{
  "source": "patent US7833979B2",
  "about": "“Toxin peptide therapeutic agents” (Amgen Inc., priority 2005, dated 2010)",
  "key": {"[1]": {"molecular_target": "Kv1.3 (Homo sapiens, UniProt P22001)", "sequence (P22001 whole entry)": "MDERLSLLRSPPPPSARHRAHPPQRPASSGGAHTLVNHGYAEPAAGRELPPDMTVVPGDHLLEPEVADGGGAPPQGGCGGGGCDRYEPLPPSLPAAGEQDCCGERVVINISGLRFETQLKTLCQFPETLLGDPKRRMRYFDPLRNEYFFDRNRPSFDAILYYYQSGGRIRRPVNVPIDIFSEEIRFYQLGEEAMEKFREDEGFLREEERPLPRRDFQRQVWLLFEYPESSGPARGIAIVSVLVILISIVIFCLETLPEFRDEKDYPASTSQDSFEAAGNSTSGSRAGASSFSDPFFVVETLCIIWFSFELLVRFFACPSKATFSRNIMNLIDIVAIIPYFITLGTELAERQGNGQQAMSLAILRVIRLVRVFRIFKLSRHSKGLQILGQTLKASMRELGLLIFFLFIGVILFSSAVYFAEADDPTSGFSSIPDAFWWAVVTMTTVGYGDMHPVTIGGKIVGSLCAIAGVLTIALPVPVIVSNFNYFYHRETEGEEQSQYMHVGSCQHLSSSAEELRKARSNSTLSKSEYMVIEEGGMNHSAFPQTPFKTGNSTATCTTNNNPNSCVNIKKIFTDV", "assay": "Whole cell patch clamp electrophysiology on HEK293 cells stably expressing human Kv1.3", "format": "cell-based", "conditions": "for Blockade of human Kv1.3 current (in words): patch clamp electrophysiology; for selectivity ratio hKv1.1/hKv1.3: ratio of hKv1.1 IC50 to hKv1.3 IC50"}, "[2]": {"system": "upregulation of CD40L and IL-2R on CD4+ T cells in human whole blood", "assay": "Ex vivo human whole blood assay, thapsigargin-induced cell surface CD40L and IL-2R on T cells (FACS)", "format": "cell-based", "conditions": "24 hours"}, "[3]": {"system": "thapsigargin-induced IL-2 and IFN-g production in human whole blood", "assay": "Ex vivo human whole blood assay, thapsigargin-induced secretion of IL-2 and IFN-g", "format": "cell-based", "conditions": "for Thapsigargin-induced IFN-g production in human whole blood / Thapsigargin-induced IL-2 production in human whole blood: two donors, 48 hours"}, "[4]": {"system": "AT-EAE model of multiple sclerosis", "assay": "Adoptive transfer experimental autoimmune encephalomyelitis (AT-EAE) model of multiple sclerosis", "format": "in vivo, Lewis rats", "conditions": "for Survival to the end of the study: n=5 rats per group; for peak clinical severity score average: scale 0-6"}, "[5]": {"assay": "Intravenous pharmacokinetic study in rats, serum levels by Kv1.3 inhibition bioassay", "format": "in vivo, Spraque Dawley rats", "method": "This dose represented equal molar amounts of these two molecules. The average weight of the rats was about 0.3 kg and two rats were used for each dose & molecule. At various times following IV injection, blood was drawn and about 0.1 ml of serum was collected. Serum samples were stored frozen at −80° C. until analysis.\nAssay Plate preparation for electrophysiology. […] Before experiments, each sample was thawed at room temperature and an aliquot (70 to 80 μl) was transferred to a well in a 96-well polypropylene plate. In order to prepare the Assay Plate, several dilutions were made from the pharmacokinetic serum samples to give rise to Test Solutions. Dilutions of serum samples from the pharmacokinetic study were into 10% Phosphate Buffered Saline (PBS, with Ca^2+ and Mg^2+). […] Standard inhibition curves were also prepared in the Assay Plate.\nCell preparation for electrophysiology. CHO cells stably expressing the voltage-activated K^+ channel, Kv1.3 were plated in T-175 tissue culture flasks (at a density of 5×10^6) 2 days before experimentation and allowed to grow to around 95% confluence. Immediately prior to the experiment, the cells were washed with PBS and then detached with a 2 ml mixture (1:1 volume ratio) of trypsin (0.25%) and versene (1:5000) at 37° C. (for 3 minutes). […] The mean K^+ current amplitude was measured between 430 and 440 ms and the data were exported to a Microsoft Excel spreadsheet. The amplitude of the K^+ current in the presence of each concentration of the Test Solution or Standard was expressed as a percentage of the K^+ current in control conditions in the same well.\nStandard inhibition curves were generated for each standard in various levels of rat serum and expressed as current percent of control (POC) versus log of nM concentration. […]\nBeyond 48 hours, the level of drug falls outside the linear range of the Standard curve and is not calculated. […]"}, "[6]": {"molecular_target": "T1, human Kv1.1 (Homo sapiens, UniProt Q09470)", "T1 construct": "expressed in transfected cells; host or cells: HEK293", "T1 sequence (Q09470 whole entry)": "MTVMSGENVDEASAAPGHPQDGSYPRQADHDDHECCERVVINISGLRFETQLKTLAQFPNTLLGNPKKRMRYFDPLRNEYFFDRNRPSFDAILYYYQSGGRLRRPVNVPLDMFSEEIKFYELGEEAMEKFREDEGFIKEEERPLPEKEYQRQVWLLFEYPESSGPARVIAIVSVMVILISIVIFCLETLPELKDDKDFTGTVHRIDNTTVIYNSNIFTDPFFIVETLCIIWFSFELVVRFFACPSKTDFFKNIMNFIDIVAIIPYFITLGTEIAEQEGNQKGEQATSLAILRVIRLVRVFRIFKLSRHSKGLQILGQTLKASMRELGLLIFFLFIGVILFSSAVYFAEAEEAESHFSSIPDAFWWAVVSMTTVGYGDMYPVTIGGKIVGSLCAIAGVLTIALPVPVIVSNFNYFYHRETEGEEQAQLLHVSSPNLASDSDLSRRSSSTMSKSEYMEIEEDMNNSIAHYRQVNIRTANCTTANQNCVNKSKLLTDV", "assay": "Whole cell patch clamp electrophysiology, HEK293 cell expression system, human Kv1.1", "format": "cell-based"}},
  "note": "“Also recorded” adds a separate entry of the source. Where no end group is shown, it is not given here.",
  "data": [
    {"substance": "Fc-L10-ShK[2-35]: human IgG1 Fc fused via 10 amino acid linker to ShK[2-35]; SEQ ID NO: 81", "values": [
      {"measurement": "Blockade of human Kv1.3 current (in words)", "setting": "[1]", "value": "potently blocks human Kv1.3 current"},
      {"measurement": "Thapsigargin-induced upregulation of CD40L on T cells in human whole blood", "setting": "[2]", "value": "blocked"},
      {"measurement": "Thapsigargin-induced upregulation of the IL-2R on T cells in human whole blood", "setting": "[2]", "value": "blocked; also recorded: suppressing activation of the IL-2R"},
      {"measurement": "Potency in blocking IL-2 production relative to cyclosporine A (by IC50)", "setting": "[3]; human whole blood", "value": "more than 200 times"},
      {"measurement": "Thapsigargin-induced IFN-g production in human whole blood", "setting": "[3]", "value": "suppressed; also recorded: blocked"},
      {"measurement": "Thapsigargin-induced IL-2 production in human whole blood", "setting": "[3]", "value": "suppressed; also recorded: potently blocked IL-2 secretion"}
    ]},
    {"substance": "iberiotoxin (QFTDVDCSVSKECWSVCKDLFGVDRGKCMGKKCRCYQ; BKCa peptide inhibitor sequence - IbTx) [reference compound]", "values": [
      {"measurement": "Thapsigargin-induced upregulation of CD40L on T cells in human whole blood", "setting": "[2]", "value": "no significant activity"},
      {"measurement": "Thapsigargin-induced upregulation of the IL-2R on T cells in human whole blood", "setting": "[2]", "value": "no significant activity"},
      {"measurement": "Thapsigargin-induced IFN-g production in human whole blood", "setting": "[3]", "value": "no significant activity"},
      {"measurement": "Thapsigargin-induced IL-2 production in human whole blood", "setting": "[3]", "value": "no significant activity"}
    ]},
    {"substance": "Fc-L10-OSK1[E16K,K20D]: OSK1-peptibody with E16K and K20D substitutions; SEQ ID NO: 1045", "values": [
      {"measurement": "selectivity ratio hKv1.1/hKv1.3", "setting": "[1]", "value": 403}
    ]},
    {"substance": "PEG-ShK[1-35]: synthetic ShK N-terminally PEGylated with 20 kDa monomethoxy-PEG-aldehyde by reductive alkylation; about 24-kDa", "values": [
      {"measurement": "IC50", "setting": "[1]; blockade of peak outward potassium current, HEK293 cells stably expressing human Kv1.3, read-out: peak IC50", "value": 0.169, "unit": "nM"},
      {"measurement": "Average body weight lost", "setting": "[4]; 1 ug/kg", "value": 30, "unit": "g"},
      {"measurement": "Onset of disease", "setting": "[4]; 1 μg/kg SC daily days −1 to 3", "value": 4, "unit": "days"},
      {"measurement": "Average body weight lost", "setting": "[4]; 10 μg/kg", "value": 18, "unit": "g"},
      {"measurement": "Onset of disease", "setting": "[4]; 10 μg/kg SC daily days −1 to 3", "value": 4.5, "unit": "days"},
      {"measurement": "Survival to the end of the study", "setting": "[4]; 10 μg/kg", "value": "all but one rat survived to the end of the study"},
      {"measurement": "peak clinical severity score average", "setting": "[4]; 10 μg/kg", "value": "< 2"},
      {"measurement": "Average body weight lost", "setting": "[4]; 100 μg/kg", "value": 11, "unit": "g"},
      {"measurement": "Onset of disease", "setting": "[4]; 100 μg/kg SC daily days −1 to 3", "value": 4.5, "unit": "days"},
      {"measurement": "Survival to the end of the study", "setting": "[4]; 100 μg/kg", "value": "all but one rat survived to the end of the study"},
      {"measurement": "peak clinical severity score average", "setting": "[4]; 100 μg/kg", "value": "< 2"},
      {"measurement": "Disease severity and survival (in words)", "setting": "[4]; SC 10 μg/kg daily from day −1 to day 3", "value": "significantly reduced disease severity and increased survival"},
      {"measurement": "terminal half-life (t1/2 b)", "setting": "[5]; IV injection 1 mg/kg, estimated from curve", "value": "6 to 12", "unit": "h"},
      {"measurement": "Time of significant suppression of Kv1.3 current (<70 POC) by serum", "setting": "[5]; single equal molar IV injection, 5% serum Test solutions", "value": "more than 24 hours"}
    ]},
    {"substance": "Fc-L10-OSK1[K7S,E16K,K20D]: OSK1-peptibody with K7S, E16K and K20D substitutions; SEQ ID NO: 1047", "values": [
      {"measurement": "selectivity ratio hKv1.1/hKv1.3", "setting": "[1]", "value": 12},
      {"measurement": "Potency and selectivity Kv1.3 versus Kv1.1 (in words)", "setting": "[6]", "value": "significant decrease in potency as well as selectivity"}
    ]},
    {"substance": "Fc-L-KTX1: peptibody: Fc fused via linker to Kaliotoxin1 (KTX1, SEQ ID NO: 24)", "values": [
      {"measurement": "Blockade of human Kv1.3 current (in words)", "setting": "[1]", "value": "blocked the human Kv1.3 current in a dose-dependent fashion"}
    ]},
    {"substance": "dendrotoxin-K", "values": [
      {"measurement": "Thapsigargin-induced upregulation of CD40L on T cells in human whole blood", "setting": "[2]", "value": "no significant activity"},
      {"measurement": "Thapsigargin-induced upregulation of the IL-2R on T cells in human whole blood", "setting": "[2]", "value": "no significant activity"}
    ]},
    {"substance": "PEG-ShK[2-35]: folded Des-Arg1-ShK N-terminally mono-PEGylated with 20 kDa MeO-PEG-aldehyde by reductive amination ({mPEG 20 kDa}-SCIDTIPKSRCTAFQCKHSMKYRLSFCRKTCGTC; disulfide (positions not given here); ends not checked; also: folded (disulfides not given here))", "values": [
      {"measurement": "Blockade of human Kv1.3 current (in words)", "setting": "[1]", "value": "active in blocking human Kv1.3"}
    ]},
    {"substance": "Fc-L10-OSK1[K7S]: OSK1-peptibody with lysine to serine substitution at position 7; SEQ ID NO: 1043", "values": [
      {"measurement": "selectivity ratio hKv1.1/hKv1.3", "setting": "[1]", "value": 269},
      {"measurement": "IC50", "setting": "[6]; whole cell patch clamp, HEK293 cell expression system, human Kv1.1, read-out: hKv1.1:IC50", "value": 100, "unit": "nM"}
    ]}
  ]
}
